Source: ChEMBL document CHEMBL4265964, “Discover the leading compound of 4β-S-(5-fluorobenzoxazole)-4-deoxy-4'-demethylepipodophyllotoxin with millimolar-potency toxicity by modifying the molecule structure of 4'-demethylepipodophyllotoxin” (Eur J Med Chem, 2018)
Calls of active or inactive are those of the source. The calls are words filed in the database; no cut-off is given here.

Key:
L02 [1] = assay: Cytotoxicity against human HL7702 cells after 48 hrs by MTT assay; assay type: cell-based; details: L02, 48 h
MRC5 = assay: Cytotoxicity against human MRC5 cells after 48 hrs by MTT assay; assay type: cell-based; details: MRC5, 48 h
HepG2 [2] = assay: Cytotoxicity against human HepG2 cells after 48 hrs by MTT assay; assay type: functional, cell-based; details: HepG2, 48 h
MCF7 = assay: Cytotoxicity against human MCF7 cells after 48 hrs by MTT assay; assay type: functional, cell-based; details: MCF7, 48 h
HeLa = assay: Cytotoxicity against human HeLa cells after 48 hrs by MTT assay; assay type: functional, cell-based
HMEC = assay: Cytotoxicity against HMEC after 48 hrs by MTT assay; assay type: cell-based; details: Homo sapiens
[3] = Cytotoxicity against human H8 cells after 48 hrs by MTT assay; assay type: cell-based
A549 = assay: Cytotoxicity against human A549 cells after 48 hrs by MTT assay; assay type: functional, cell-based; details: A549, 48 h
L02 [4] = assay: Upregulation of COX5A expression in human HL7702 cells at 50 uM after 12 hrs by proteomic analysis relative to control; assay type: functional, cell-based
Homo sapiens [5] = species: Homo sapiens; assay: Inhibition of human topoisomerase-2 assessed as reduction in relaxation of kinetoplast DNA at 100 uM after 30 mins by ethidium bromide staining based agarose gel electrophoresis method
L02 [6] = assay: Upregulation of PARK7 expression in human HL7702 cells at 50 uM after 12 hrs by proteomic analysis; assay type: functional, cell-based
L02 [7] = assay: Induction of apoptosis in human HL7702 cells assessed as necrotic cells at 100 uM after 42 hrs by Annexin V-FITC/propidium iodide staining based flow cytometry (reference value: 0.2%); assay type: cell-based; details: l02, 42 h
HepG2 [8] = assay: Cell cycle arrest in human HepG2 cells assessed as accumulation at G2/M phase at 1 uM after 42 hrs by propidium iodide staining based flow cytometry relative to control; assay type: functional
L02 [9] = assay: Upregulation of SRSF3 expression in human HL7702 cells at 50 uM after 12 hrs by proteomic analysis relative to control; assay type: functional, cell-based
L02 [10] = assay: Induction of apoptosis in human HL7702 cells assessed as late apoptotic cells at 100 uM after 42 hrs by Annexin V-FITC/propidium iodide staining based flow cytometry (reference value: 1%); assay type: cell-based; details: l02, 42 h
L02 [11] = assay: Induction of DNA damage in human HL7702 cells assessed as gammaH2AX accumulation at 50 uM after 12 hrs by DAPI staining based immuno-fluorescence assay; assay type: cell-based; details: l02, 12 h
HepG2 [12] = assay: Induction of apoptosis in human HepG2 cells assessed as live cells at 10 uM after 42 hrs by Annexin V-FITC/propidium iodide staining based flow cytometry (reference value: 98.2%); assay type: functional
L02 [13] = assay: Induction of apoptosis in human HL7702 cells assessed as early apoptotic cells at 100 uM after 42 hrs by Annexin V-FITC/propidium iodide staining based flow cytometry (reference value: 0.3%); assay type: cell-based; details: l02, 42 h
[14] = Induction of apoptosis in human HL7702 cells assessed as live cells at 100 uM after 42 hrs by Annexin V-FITC/propidium iodide staining based flow cytometry (reference value: 98.5%); assay type: cell-based; details: HL7702 (L02) cells, read-out: Activity
Homo sapiens [15] = species: Homo sapiens; assay: Inhibition of human topoisomerase-2 assessed as reduction in relaxation of kinetoplast DNA at 200 uM after 30 mins by ethidium bromide staining based agarose gel electrophoresis method
HepG2 [16] = assay: Induction of apoptosis in human HepG2 cells assessed as late apoptotic cells at 10 uM after 42 hrs by Annexin V-FITC/propidium iodide staining based flow cytometry (reference value: 0.9%); assay type: functional
L02 [17] = assay: Upregulation of HMGB1 expression in human HL7702 cells at 50 uM after 12 hrs by proteomic analysis; assay type: functional, cell-based
L02 [18] = assay: Cell cycle arrest in human HL7702 cells assessed as accumulation at G2/M phase at 5 to 10 uM after 42 hrs by propidium iodide staining based flow cytometry relative to control; details: l02, 42 h
L02 [19] = assay: Upregulation of Akt expression in human HL7702 cells at 50 uM after 12 hrs by proteomic analysis relative to control; assay type: functional, cell-based
Homo sapiens [20] = species: Homo sapiens; assay: Inhibition of human topoisomerase-2 assessed as reduction in relaxation of kinetoplast DNA at 50 uM after 30 mins by ethidium bromide staining based agarose gel electrophoresis method
HepG2 [21] = assay: Cell cycle arrest in human HepG2 cells assessed as accumulation at G2/M phase at 5 to 10 uM after 42 hrs by propidium iodide staining based flow cytometry; assay type: functional
HepG2 [22] = assay: Induction of apoptosis in human HepG2 cells assessed as necrotic cells at 10 uM after 42 hrs by Annexin V-FITC/propidium iodide staining based flow cytometry (reference value: 0.3%); assay type: functional
HepG2 [23] = assay: Induction of apoptosis in human HepG2 cells assessed as early apoptotic cells at 10 uM after 42 hrs by Annexin V-FITC/propidium iodide staining based flow cytometry (reference value: 0.5%); assay type: functional

Row | Structure (SMILES) | IC50 (L02 [1]) | IC50 (MRC5) | IC50 (HepG2 [2]) | IC50 (MCF7) | IC50 (HeLa) | IC50 (HMEC) | IC50 [3] | IC50 (A549) | other results
1 | COc1cc([C@@H]2c3cc4c(cc3[C@@H](c3nc5c(F)c(F)c(F)c(F)c5o3)[C@H]3COC(=O)[C@H]23)OCO4)cc(OC)c1O | 75.1 µM | 65.4 µM | 6.8 µM | 3.5 µM | 4.3 µM | 75.5 µM | 44.6 µM | 1.7 µM | –
2 | COc1cc([C@@H]2c3cc4c(cc3[C@@H](O)[C@H]3COC(=O)[C@H]23)OCO4)cc(OC)c1O [4'-DEMETHYLEPIPODOPHYLLOTOXIN] | 19.4 µM | 21.3 µM | 26.1 µM | 30.1 µM | 27.8 µM | 19.6 µM | 25.1 µM | 19 µM | –
3 | COc1cc([C@@H]2c3cc4c(cc3[C@@H](C3CC(c5ccncc5F)=CN3)[C@H]3COC(=O)[C@H]23)OCO4)cc(OC)c1O (some centres not stated) | 19.8 µM | 28.1 µM | 2.8 µM | 2.5 µM | 1.9 µM | 31.5 µM | 19.2 µM | 1.4 µM | –
4 | COc1cc([C@@H]2c3cc4c(cc3[C@@H](c3nc5cc(C(F)(F)F)ccc5s3)[C@H]3COC(=O)[C@H]23)OCO4)cc(OC)c1O | 79.5 µM | 73.3 µM | 19.5 µM | 34.5 µM | 21.1 µM | 42.3 µM | 81 µM | 6.5 µM | –
5 | COc1cc([C@@H]2c3cc4c(cc3[C@@H](c3nc5ccccc5o3)[C@H]3COC(=O)[C@H]23)OCO4)cc(OC)c1O | 17.7 µM | 32.3 µM | 19.4 µM | 21.4 µM | 16.4 µM | 15.6 µM | 20.4 µM | 25.6 µM | –
6 | COc1cc([C@@H]2c3cc4c(cc3[C@@H](O[C@@H]3O[C@@H]5CO[C@@H](C)O[C@H]5[C@H](O)[C@H]3O)[C@H]3COC(=O)[C@H]23)OCO4)cc(OC)c1O [ETOPOSIDE] | 24.6 µM | 33.5 µM | 20 µM | 53.8 µM | 21.4 µM | 21.5 µM | 75.4 µM | 22.5 µM | Activity (L02 [4]): inactive; inhibition (Homo sapiens [5]): Active; Activity (L02 [6]): inactive; Activity (L02 [7]): 2.2%; Activity (HepG2 [8]): 33%; Activity (L02 [9]): inactive; Activity (L02 [10]): 32.8%; Activity (L02 [11]): Toxic; Activity (HepG2 [12]): 76.6%; Activity (L02 [13]): 37%; viability at 42 h, 100 µM [14]: 28%; inhibition (Homo sapiens [15]): Active; Activity (HepG2 [16]): 11%; Activity (L02 [17]): inactive; Activity (L02 [18]): 64%; Activity (L02 [19]): inactive; inhibition (Homo sapiens [20]): inactive; Activity (HepG2 [21]): Active; Activity (HepG2 [22]): 5.4%; Activity (HepG2 [23]): 7%
7 | COc1cc([C@@H]2c3cc4c(cc3[C@@H](c3nc5cc(C)ccc5s3)[C@H]3COC(=O)[C@H]23)OCO4)cc(OC)c1O | 24.2 µM | 47 µM | 8.2 µM | 5.4 µM | 5.1 µM | 15.6 µM | 27.5 µM | 3 µM | –
8 | COc1cc([C@@H]2c3cc4c(cc3[C@@H](C3CC(c5ccncc5)=CN3)[C@H]3COC(=O)[C@H]23)OCO4)cc(OC)c1O (some centres not stated) | 22.8 µM | 19 µM | 10 µM | 4.3 µM | 5.7 µM | 38.1 µM | 23.6 µM | 2 µM | –
9 | COc1cc([C@@H]2c3cc4c(cc3[C@@H](c3nc5cc(C)ccc5o3)[C@H]3COC(=O)[C@H]23)OCO4)cc(OC)c1O | 31.5 µM | 39 µM | 15.4 µM | 14.4 µM | 15.4 µM | 12.6 µM | 19.5 µM | 8 µM | –
